Measurements: patent US7649002B2, “(3,5-dimethylpiperidin-1yl)(4-phenylpyrrolidin-3-yl)methanone derivatives as MCR4 agonists” (Pfizer Inc, priority 2004, dated 2010)
One block for each compound: values may come before it.

What was measured:
[1] = system: men with psychogenic and organic ED; conditions: cited from earlier work
human MCR5 receptor = target: T1, human MCR5 receptor (Homo sapiens, UniProt P33032); assay: MCR5 standard functional assay (Protocol D): CHO-K1-MC5R-CRE-β-lactamase reporter; format: cell-based; conditions: Table 6; for Selectivity MCR5/MCR4: MCR4 by Protocol E; for EC50: Protocol D
T1 construct: expressed in transfected cells
Description: These cell lines were engineered using protocols akin to those outlined by Zaccolo et al (Zaccolo, M., (2000) Nature, 2(1); 25-29). Compound-induced activation of the MCR5 or MCR4 receptors in these two cell lines stimulated the production, and intracellular accumulation, of the enzyme β-lactamase. The quantity of β-lactamase enzyme produced was directly proportional to the degree to which the test compound activated the MCR5 or MCR4 receptors present on these cells and was quantified using the P-lactamase gene reporter analysis kit that is commercially available from Invitrogen Life Technologies. An in-depth description of this technology and assay protocols are available from the Invitrogen web site (www.invitrogen.com). The protocol listed below provides a summary of that assay methodology. The quantity of β-lactamase enzyme produced by compound-induced activation of the MCR5 or MCR4 receptors expressed in these cell lines was quantified using a LjI Biosystems Analyst™ HT 96.384 plate reader set to excite at a wave length of 405 nm, and measure the energy emitted at wave lengths of 450 nm and 530 nm. Cellular responses were quantified by dividing the measured energy emitted at a wavelength of 450 nm by the measured energy emitted at a wavelength of 530 nm. […] CCF4-AM was dissolved in 100% DMSO to give a final solution concentration of 1 mM. This solution was termed Solution A. Probenecid was dissolved in 200 mM NaOH to give a final solution concentration of 200 mM. This solution was termed Solution D. Composition of the β-lactamase assay dye solution: for 1072 μL of assay dye solution combine: 12 μL of Solution A, 60 μL of Solution B, 925 μL of Solution C and 75 μL of Solution D. […] Cells were grown in T225 vent cap flasks containing 50 ml of growth medium and maintained in a cell incubator at a temperature of 37° C. and in an environment containing 5% CO2. The composition of the growth medium for the CHO-K1-MC5R-CRE-β-lactamase was 90% v/v DMEM supplemented with; Glutamax-1, 25 mM HEPES, 10% v/v foetal calf serum (FCS), 1 mM sodium pyruvate, 0.1 mM non essential amino acids and 800 μg/ml genetic in. For the CHO-K1-MC4R-CRE-β-lactamase this growth media was further supplemented with […] Zeocin. Cells were harvested when they reached 80-90% confluency by first removing the existing growth medium and then washing with PBS that had been pre-warmed to a temperature of 37° C. This PBS was then removed and 5 ml of cell dissociation fluid added to the flask. These cells were incubated for 5 minutes in a cell incubator set at a temperature of 37° C. and in an environment containing 5% CO2 to detach the cells. When cells were detached, pre-warmed growth media was added, the cells re-suspended and mixed gently to achieve a single cell suspension by pipetting. This cell suspension was then used for experimentation, or transferred into a new T225 flask to perpetuate the cell culture. On the first day of the assay cells were harvested as described above. […] For each assay the cell plates were then retuned to a cell incubator maintained at a temperature of 37° C. and in an environment containing 5% CO2 overnight before performing the assay on the second assay day. […] For the MCR4 improved functional assay methodology the solution of cyclohexamide was not added. Subsequently, 10 μL of the test compound solution was transferred to the assay plate. […] After this incubation period the plate was removed from the incubator, 10 μL of the […] assay dye solution was added to each well and then the plate returned to the cell incubator.

human MCR4 receptor [2] = target: T2, human MCR4 receptor (Homo sapiens, UniProt P32245); assay: MCR4 improved functional assay (Protocol E): CHO-K1-MC4R-CRE-β-lactamase reporter; format: cell-based
T2 construct: expressed in transfected cells
Description: (ii) MCR5 Standard Functional Assay Methodology and MCR4 Improved Functional Assay Methodology [Assay Protocol D and E Respectively] […] These cell lines were engineered using protocols akin to those outlined by Zaccolo et al (Zaccolo, M., (2000) Nature, 2(1); 25-29). Compound-induced activation of the MCR5 or MCR4 receptors in these two cell lines stimulated the production, and intracellular accumulation, of the enzyme β-lactamase. The quantity of β-lactamase enzyme produced was directly proportional to the degree to which the test compound activated the MCR5 or MCR4 receptors present on these cells and was quantified using the P-lactamase gene reporter analysis kit that is commercially available from Invitrogen Life Technologies. An in-depth description of this technology and assay protocols are available from the Invitrogen web site (www.invitrogen.com). The protocol listed below provides a summary of that assay methodology. The quantity of β-lactamase enzyme produced by compound-induced activation of the MCR5 or MCR4 receptors expressed in these cell lines was quantified using a LjI Biosystems Analyst™ HT 96.384 plate reader set to excite at a wave length of 405 nm, and measure the energy emitted at wave lengths of 450 nm and 530 nm. Cellular responses were quantified by dividing the measured energy emitted at a wavelength of 450 nm by the measured energy emitted at a wavelength of 530 nm. […] CCF4-AM was dissolved in 100% DMSO to give a final solution concentration of 1 mM. This solution was termed Solution A. Probenecid was dissolved in 200 mM NaOH to give a final solution concentration of 200 mM. This solution was termed Solution D. Composition of the β-lactamase assay dye solution: for 1072 μL of assay dye solution combine: 12 μL of Solution A, 60 μL of Solution B, 925 μL of Solution C and 75 μL of Solution D. […] Cells were grown in T225 vent cap flasks containing 50 ml of growth medium and maintained in a cell incubator at a temperature of 37° C. and in an environment containing 5% CO2. The composition of the growth medium for the CHO-K1-MC5R-CRE-β-lactamase was 90% v/v DMEM supplemented with; Glutamax-1, 25 mM HEPES, 10% v/v foetal calf serum (FCS), 1 mM sodium pyruvate, 0.1 mM non essential amino acids and 800 μg/ml genetic in. For the CHO-K1-MC4R-CRE-β-lactamase this growth media was further supplemented with […] Zeocin. Cells were harvested when they reached 80-90% confluency by first removing the existing growth medium and then washing with PBS that had been pre-warmed to a temperature of 37° C. This PBS was then removed and 5 ml of cell dissociation fluid added to the flask. These cells were incubated for 5 minutes in a cell incubator set at a temperature of 37° C. and in an environment containing 5% CO2 to detach the cells. When cells were detached, pre-warmed growth media was added, the cells re-suspended and mixed gently to achieve a single cell suspension by pipetting. This cell suspension was then used for experimentation, or transferred into a new T225 flask to perpetuate the cell culture. […] For each assay the cell plates were then retuned to a cell incubator maintained at a temperature of 37° C. and in an environment containing 5% CO2 overnight before performing the assay on the second assay day. […] For the MCR4 improved functional assay methodology the solution of cyclohexamide was not added. Subsequently, 10 μL of the test compound solution was transferred to the assay plate. The assay plate was then transferred to a cell incubator, set at 37° C. and in an environment containing 5% CO2, and left for 4 hours for the MCR4 improved assay methodology, or 5 hours for the MCR5 standard assay methodology. After this incubation period the plate was removed from the incubator, 10 μL of the […] assay dye solution was added to each well and then the plate returned to the cell incubator.

human MCR4 receptor [3] = target: T2, human MCR4 receptor; assay: MCR4 standard functional assay (Protocol C): cAMP AlphaScreen in HEK cells; format: cell-based; conditions: Table 5
Procedure: (§1) Stimulation of adenylate cyclase following receptor activation is a widely used measure of functional activity for a number of receptor systems. The functional assay to measure cyclic AMP (cAMP) utilises human embryonic kidney (HEK) cells that stably express the human melanocortin MCR1, MCR3 or MCR4 receptor. Activation of MCR1, MCR3 or MCR4 receptors stimulates adenylate cyclase, generating cAMP, which is measured using AlphaScreen™ (PerkinElmer assay kits.
(§2) The AlphaScreen™ cAMP assay kit consists of ‘donor beads’, ‘acceptor beads’, and biotinylated cAMP which links the different beads together. Excitation of this linked complex at […] in the Fusion™-α microplate analyser results in light emission between […].
(§3) (i) MCR1. MCR3 and MCR4 Standard Functional Assay Methodology [Assay Protocol A, B AND C Respectively]
(§4) Determination of activity against the human MCR1, MCR3 and MCR4 receptor subtypes was carried out for compounds according to the present invention using three immortalised human embryonic kidney (HEK) cell lines that had been biologically engineered to express the human melanocortin MCR1, MCR3 or MCR4 receptor subtypes. These cell lines were engineered using protocols akin to those outlined by Gouarderes et al (Gouarderes, C., (2002) Neuroscience, 115(2); 349-361).
(§5) Such-compound-induced activation of these MCR1, MCR3 or MCR4 receptors lead to the stimulation of the cellular enzyme adenylate cyclase, which in turn lead to the cellular generation, and intra-cellular accumulation, of cyclic adenosine monophosphate (cAMP). […] Intracellular levels of cAMP were quantified using the commercially available AlphaScreen™ assay kits from PerkinElmer. A detailed assay protocol and an explanation of the concept underlying this kit is available through the PerkinElmer website (www.perkinelmer.com). The protocol listed below provides a summary this information.
(§6) The quantity of intracellular cAMP produced by compound-induced activation of the MCR1, MCR3 and MCR4 receptors in these three cell lines was measured using a Fusion™-α microplate analyser set to stimulate at a wavelength of 680 nm and to measure the energy emitted at wave lengths between […]. Compound-induced increases in MCR1, MCR3 or MCR4 receptor activation were subsequently quantified as a decrease in the quantity of light emitted at wavelengths between […]. Data analysis was subsequently performed using a curve-fitting program and the apparent potency of the test compound (expressed as an EC50 and defined as the effective compound concentration that elicited 50% of the maximum compound-induced response) extrapolated from the fitted curve.
Stimulation buffer (as per AlphaScreen™ protocol): HBSS supplemented with 0.5 mM IBMX, 5 mM HEPES, 0.1% (w/v) BSA and 10 mM MgCl2. […]

human MCR3 receptor = target: T3, human MCR3 receptor (Homo sapiens, UniProt P41968); assay: MCR3 standard functional assay (Protocol B): cAMP AlphaScreen in HEK cells; format: cell-based; conditions: Table 5
T3 construct: expressed in transfected cells
Procedure: as §1, §2, §3, §4, §5, §6
Stimulation buffer (as per AlphaScreen™ protocol): HBSS supplemented with 0.5 mM IBMX, 5 mM HEPES, 0.1% (w/v) BSA and 10 mM MgCl2.
Lysis buffer (as per AlphaScreen™ protocol): 5 mM HEPES solution supplemented with 0.1% (w/v) BSA and 0.3% (v/v) Tween-20.
Detection mix (as per AlphaScreen™ protocol): Lysis buffer supplemented with the biotinylated cAMP (10 nM) and Donor beads (10 μg/ml) as supplied in the AlphaScreenT cAMP assay kit.
For the MCR1, MCR3 and MCR4 standard functional assay methodologies compounds were initially dissolved in DMSO to give a compound concentration of 4 mM and then further diluted for the assay in stimulation buffer to give actual concentrations 2-fold greater than that desired as the final assay concentration.
The three HEK cell lines, as detailed hereinbefore, expressing the human MCR1, MCR3 or MCR4 receptor subtypes were grown in T225 vent cap flasks containing 50 ml of growth medium (DMEM supplemented with 10% (v/v) FCS, 2 mM L-Glutamine, 25 mM HEPES and 1.0 mg/ml Geneticin) and maintained in a cell incubator at a temperature of 37° C. and in an environment containing 5% CO2. Cells were harvested when they reached 80-90% confluency by first removing the existing growth medium and then washing with PBS that had been pre-warmed to a temperature of 37° C. […]

T1 sequence (P33032 whole entry): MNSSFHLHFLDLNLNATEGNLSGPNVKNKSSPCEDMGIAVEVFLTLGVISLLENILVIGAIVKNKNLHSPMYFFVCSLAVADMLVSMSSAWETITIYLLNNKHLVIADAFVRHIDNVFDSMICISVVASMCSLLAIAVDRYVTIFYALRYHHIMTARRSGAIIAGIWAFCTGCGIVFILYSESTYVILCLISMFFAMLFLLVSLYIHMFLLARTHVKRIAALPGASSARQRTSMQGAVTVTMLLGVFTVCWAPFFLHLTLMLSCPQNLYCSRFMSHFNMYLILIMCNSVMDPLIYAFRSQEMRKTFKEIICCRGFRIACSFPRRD
T2 sequence (P32245 whole entry): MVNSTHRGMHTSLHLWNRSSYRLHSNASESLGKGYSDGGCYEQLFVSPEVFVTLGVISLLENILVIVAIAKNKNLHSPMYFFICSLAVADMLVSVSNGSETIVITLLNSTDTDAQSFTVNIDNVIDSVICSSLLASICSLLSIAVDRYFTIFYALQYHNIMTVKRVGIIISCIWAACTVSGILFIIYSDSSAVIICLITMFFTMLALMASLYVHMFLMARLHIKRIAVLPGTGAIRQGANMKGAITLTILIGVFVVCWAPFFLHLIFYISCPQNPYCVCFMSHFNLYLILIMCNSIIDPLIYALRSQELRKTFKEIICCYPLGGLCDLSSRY
T3 sequence (P41968 whole entry): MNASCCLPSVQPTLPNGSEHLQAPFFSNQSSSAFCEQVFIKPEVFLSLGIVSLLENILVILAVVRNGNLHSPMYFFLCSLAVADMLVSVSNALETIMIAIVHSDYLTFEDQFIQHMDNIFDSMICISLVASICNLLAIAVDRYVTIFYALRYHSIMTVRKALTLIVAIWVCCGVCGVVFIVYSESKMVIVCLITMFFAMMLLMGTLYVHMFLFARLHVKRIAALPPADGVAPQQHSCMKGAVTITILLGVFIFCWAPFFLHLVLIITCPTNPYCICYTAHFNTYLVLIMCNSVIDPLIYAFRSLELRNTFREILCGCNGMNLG

Compound: Melanotan II
doses after which increased sexual desire was reported ([1]; 13/19 doses, vs placebo P<0.01): 68% | subjects with severe nausea ([1]; dose of 0.025 mg/kg): 12.9% | men with penile erection ([1]; in the absence of sexual stimulation, 20 men with psychogenic and organic ED): 17 of 20 | mean duration of Rigiscan tip rigidity>80% ([1]; men with ED, monitored 6 hours): 41 min

Compound: C[C@@H]1CN(C(=O)[C@@H]2CN(C(C)(C)C)C[C@H]2c2ccc(F)cc2F)C[C@H](C)[C@@]1(O)c1ccccn1.Cl [Example 22, (3R,4R,5S)-1-[(3S,4R)-1-tert-Butyl-4-(2,4-difluorophenyl)pyrrolidin-3-yl]carbonyl-3,5-dimethyl-4-pyridin-2-ylpiperidin-4-ol hydrochloride]
Selectivity MCR5/MCR4 (human MCR5 receptor): 772 | EC50 (human MCR5 receptor): 17.8 µM | EC50 (human MCR4 receptor [2]; Protocols C or E, read-out: functional potency at the MC4 receptor (EC50)): < 50 nM | EC50 (human MCR4 receptor [2]; Table 6, read-out: MCR4 EC50): 23 nM

Compound: C[C@@H]1CN(C(=O)[C@@H]2CN(C(C)(C)C)C[C@H]2c2ccc(F)cc2F)C[C@H](C)[C@@]1(O)c1ccc(F)cc1F.Cl [Example 15, (3R,4R,5S)-1-{[(3S,4R)-1-tert-butyl-4-(2,4-difluorophenyl)pyrrolidin-3-yl]carbonyl}-4-(2,4-difluorophenyl)-3,5-dimethylpiperidin-4-ol hydrochloride]
Selectivity MCR5/MCR4 (human MCR5 receptor): 556 | EC50 (human MCR5 receptor): 3.5 µM | EC50 (human MCR4 receptor [2]; MCR4 EC50 (nM), Table 6): 6.3 nM | EC50 (human MCR4 receptor [2]; functional potency at the MC4 receptor (EC50), Protocols C or E): < 50 nM

More lines, now with the values ahead:

EC50 (human MCR4 receptor [3]): 0.068 µM | Selectivity MCR3/MCR4 (human MCR3 receptor; MCR4 by Protocol C): 123 | EC50 (human MCR3 receptor; Protocol B): 8.38 µM
Compound: CCN1C[C@@H](C(=O)N2C[C@@H](C)[C@](O)(C3CCCCC3)[C@@H](C)C2)[C@H](c2ccc(F)cc2F)C1 (relative stereo) [Example 2, (3R,4R,5S)-4-Cyclohexyl-1-{[(3S*,4R*)4-(2,4-difluorophenyl)-1-ethylpyrrolidin-3-yl]carbonyl}-3,5-dimethylpiperidin-4-ol]

EC50 (human MCR4 receptor [3]): 0.045 µM
Compound: Cc1ccc([C@@]2(O)[C@H](C)CN(C(=O)[C@@H]3CN(C(C)(C)C)C[C@H]3c3ccc(F)cc3F)C[C@@H]2C)cc1 [Example 4, (3R,4R,5S)-1-{[(3S,4R)-1-tert-Butyl-4-(24-difluorophenyl)pyrrolidin-3-yl]carbonyl}-3,5-dimethyl-4-(4-methylphenyl)piperidin-4-ol]
